Test results as given in patent publication US12377104B1, “Methods for treating a fatty liver disease” (Madrigal Pharmaceuticals, Inc., priority 2024, dated 2025).

Test system: adults with biopsy-confirmed NASH
Assay: MAESTRO-NASH: liver enzymes, imaging and biomarkers (MRI-PDFF, CAP, VCTE, MRE, liver and spleen volume, ELF)
Type: in vivo, human
Details: 80 mg
[1] = wk 48, baseline ALT ≥30 U per liter
[2] = week 52, baseline ELF score ≥9.8
[3] = week 52, baseline PIIINP ≥9 ng/mL
[4] = week 52, baseline TIMP-I ≥240 ng/ml
[5] = week 52, baseline hyaluronic acid ≥50 ng/ml

Structure (SMILES): CC(C)c1cc(Oc2c(Cl)cc(-n3nc(C#N)c(=O)[nH]c3=O)cc2Cl)n[nH]c1=O [Resmetirom, 2-(3,5-dichloro-4-((5-isopropyl-6-oxo-1,6-dihydropyridazin-3-yl)oxy)phenyl)-3,5-dioxo-2,3,4,5-tetrahydro-1,2,4-triazine-6-carbonitrile]
- Alanine aminotransferase level, difference from placebo (wk 48): −19.7 percentage points
- Aspartate aminotransferase level, difference from placebo (wk 48): −19.3 percentage points
- γ-Glutamyltransferase level, difference from placebo (wk 48): −28.3 percentage points
- Alanine aminotransferase level, least-squares mean percent change from baseline [1]: −26.6 ± 3.7%
- Aspartate aminotransferase level, least-squares mean percent change from baseline [1]: −22.1 ± 3.9%
- γ-Glutamyltransferase level, least-squares mean percent change from baseline [1]: −25.0 ± 5.5%
- MRI-PDFF, difference from placebo (wk 52): −26.7 percentage points
- MRI-PDFF, least-squares mean percent change from baseline (wk 52): −35.4 ± 2.8%
- MRE ≥19% increase from BL, no. of patients (F1B, responder analysis): 0
- MRE ≥19% reduction from BL, % of patients (F1B, responder analysis): (20.0) %
- MRE ≥19% reduction from BL, no. of patients (F1B, responder analysis): 1
- VCTE/LSM improving >25%, % of patients (F1B, responder analysis): (50.0) %
- VCTE/LSM improving >25%, no. of patients (F1B, responder analysis): 6
- VCTE/LSM improving ≥30%, % of patients (F1B, responder analysis): (41.7) %
- VCTE/LSM improving ≥30%, no. of patients (F1B, responder analysis): 5
- VCTE/LSM worsening ≥25%, % of patients (F1B, responder analysis): (8.3) %
- VCTE/LSM worsening ≥25%, no. of patients (F1B, responder analysis): 1
- VCTE/LSM worsening ≥30%, % of patients (F1B, responder analysis): (8.3) %
- VCTE/LSM worsening ≥30%, no. of patients (F1B, responder analysis): 1
- FibroScan VCTE/LSM, LS mean CFB (F1B, week 52): −3.7 kPa
- FibroScan VCTE/LSM, LS mean CFB difference from PBO (F1B, week 52): −3.1 kPa
- MRE, LS mean % CFB (F1B, week 52): −5.7%
- MRE, LS mean % CFB difference from PBO (F1B, week 52): −13.2%
- MRE ≥19% increase from BL, no. of patients (F2, responder analysis): 0
- MRE ≥19% reduction from BL, % of patients (F2, responder analysis): (35.0) %
- MRE ≥19% reduction from BL, no. of patients (F2, responder analysis): 7
- VCTE/LSM improving ≥25%, % of patients (F2, responder analysis): (44.0) %
- VCTE/LSM improving ≥25%, no. of patients (F2, responder analysis): 37
- VCTE/LSM improving ≥30%, % of patients (F2, responder analysis): (33.3) %
- VCTE/LSM improving ≥30%, no. of patients (F2, responder analysis): 28
- VCTE/LSM worsening ≥25%, % of patients (F2, responder analysis): (11.9) %
- VCTE/LSM worsening ≥25%, no. of patients (F2, responder analysis): 10
- VCTE/LSM worsening ≥30%, % of patients (F2, responder analysis): (8.3) %
- VCTE/LSM worsening ≥30%, no. of patients (F2, responder analysis): 7
- FibroScan VCTE/LSM, LS mean CFB (F2, week 52): −2.3 kPa
- FibroScan VCTE/LSM, LS mean CFB difference from PBO (F2, week 52): 1.1 kPa
- MRE, LS mean % CFB (F2, week 52): −1.9%
- MRE, LS mean % CFB difference from PBO (F2, week 52): 4.0%
- MRE ≥19% increase from BL, % of patients (F3, responder analysis): (3.6) %
- MRE ≥19% increase from BL, no. of patients (F3, responder analysis): 3
- MRE ≥19% reduction from BL, % of patients (F3, responder analysis): (26.2) %
- MRE ≥19% reduction from BL, no. of patients (F3, responder analysis): 22
- VCTE/LSM improving ≥25%, % of patients (F3, responder analysis): (41.1) %
- VCTE/LSM improving ≥25%, no. of patients (F3, responder analysis): 67
- VCTE/LSM improving ≥30%, % of patients (F3, responder analysis): (34.4) %
- VCTE/LSM improving ≥30%, no. of patients (F3, responder analysis): 56
- VCTE/LSM worsening ≥25%, % of patients (F3, responder analysis): (14.7) %
- VCTE/LSM worsening ≥25%, no. of patients (F3, responder analysis): 24
- VCTE/LSM worsening ≥30%, % of patients (F3, responder analysis): (12.9) %
- VCTE/LSM worsening ≥30%, no. of patients (F3, responder analysis): 21
- FibroScan VCTE/LSM, LS mean CFB (F3, week 52): 2.0 kPa
- FibroScan VCTE/LSM, LS mean CFB difference from PBO (F3, week 52): −0.86 kPa
- MRE, LS mean % CFB (F3, week 52): −8.9%
- MRE, LS mean % CFB difference from PBO (F3, week 52): −8.6%
- Liver volume, LS mean % CFB (week 16): −18.8%
- Liver volume, LS mean % CFB difference from PBO (week 16): 18.5%
- MRI-PDFF % fat fraction, LS mean % CFB (week 16): −37.8%
- MRI-PDFF % fat fraction, LS mean % CFB difference from PBO (week 16): −31.4%
- Spleen volume, LS mean % CFB (week 16): −2.4%
- Spleen volume, LS mean % CFB difference from PBO (week 16): −3.9%
- ALT, LS mean % CFB (week 48): −26.6%
- ALT, LS mean % CFB difference from PBO (week 48): −19.7%
- ALT, LS mean CFB (week 48): −20.4 U/L
- AST, LS mean % CFB (week 48): −22.1%
- AST, LS mean % CFB difference from PBO (week 48): −19.3%
- AST, LS mean CFB (week 48): −13.9 U/L
- GGT, LS mean % CFB (week 48): −25.0%
- GGT, LS mean % CFB difference from PBO (week 48): −28.3%
- GGT, LS mean CFB (week 48): −31.3 U/L
- Adiponectin, LS mean CFB (week 52): 0.86 µg/mL
- Adiponectin, LS mean CFB difference from PBO (week 52): 0.97 µg/mL
- CK-18, LS mean CFB (week 52): −278.2 U/L
- CK-18, LS mean CFB difference from PBO (week 52): −134.3 U/L
- FibroScan CAP, LS mean CFB (week 52): −39.6 dB/m
- FibroScan CAP, LS mean CFB difference from PBO (week 52): −25.2 dB/m
- Liver volume, LS mean % CFB (week 52): −21.6%
- Liver volume, LS mean % CFB difference from PBO (week 52): −20.5%
- MRI-PDFF % fat fraction, LS mean % CFB (week 52): −35.4%
- MRI-PDFF % fat fraction, LS mean % CFB difference from PBO (week 52): −26.7%
- Spleen volume, LS mean % CFB (week 52): −5.9%
- Spleen volume, LS mean % CFB difference from PBO (week 52): −9.0%
- Enhanced liver fibrosis score, LS mean CFB [2]: -0.34
- Enhanced liver fibrosis score, LS mean CFB difference from PBO [2]: −0.22
- PIIINP, LS mean % CFB [3]: −10.7%
- PIIINP, LS mean % CFB difference from PBO [3]: −9.7%
- PIIINP, LS mean CFB [3]: 2.0 ng/mL
- PIIINP, LS mean CFB difference from PBO [3]: -1.4 ng/mL
- TIMP-I, LS mean % CFB [4]: −9.3%
- TIMP-I, LS mean % CFB difference from PBO [4]: −5.7%
- TIMP-I, LS mean CFB [4]: -31.0 ng/mL
- TIMP-I, LS mean CFB difference from PBO [4]: -17.7 ng/mL
- Hyaluronic acid, LS mean % CFB [5]: 17.2%
- Hyaluronic acid, LS mean % CFB difference from PBO [5]: −7.6%
- Hyaluronic acid, LS mean CFB [5]: 1.1 µg/L
